Results on three molecules are retold here after patent publication EP0200942B1, “New derivatives of an aminoketone” (NIPPON KAYAKU KABUSHIKI KAISHA, priority 1985, dated 1986).

Data set [1] concerns Spinal reflex (flexor reflex). Kind of data set: Spinal reflex (flexor reflex) inhibitory action, evoked electromyogram in anesthetized rats. It is filed as in vivo, male rats; Wistar strain. The settings on record: intravenous (i.v.) administration of 5 mg/kg in physiological saline; average amplitude over 30 minutes after vs 10 minutes before administration; rats anesthetized with urethane and α-chloralose. The method, then:
1. Spinal reflex (flexor reflex) inhibitory action
Animals (male rats; Wistar strain) were anesthetized with urethane and α-chloralose, and their tibial nerve was dissected, and stimulated (0.1 msec, 0.1 Hz, ultra-maximum stimulation) by the stimulator (Model MSE-3; Nippon Koden). […] The amplitude of this evoked electromyogram was recorded on a pen recorder through a peak holder.The activity of the compounds was expressed by flexor reflex inhibition rate. That is, the flexor reflex inhibition rate was calculated from the following equation (A): [formula] wherein A is the average amplitude of the electromyogram in the period of 10 minuts before the administration of the test compound, and B is the average amplitude of the electromyogram in the period of 30 minutes after the intravenous (i.v.) administration of 5 mg/kg of the test compound dissolved in a physiological saline solution.

Data set [2] is described as follows: Acute toxicity, LD50 in mice intravenously. The settings on record: mouse, in vivo, iv, read-out: LD₅₀ (Mice; i.v.). The method, then: LD₅₀ (mg/kg) of the each test compound given to mice intravenously was determined.
In data set [3] the test system is ischemic decerebrate rigidity. Kind of data set: Action to ischemic decerebrate rigidity of rat (Fukuda et al method). Type of data set: in vivo, male Wistar rat. The conditions noted are these: intravenous administration 3.5 mg/kg; average forepaw tension for 10 minutes at peak period after vs before administration. From the text: 2. Action to ischemic decerebrate rigidity of rat
The effects on the ischemic decerebrate rigidity were investigated by using Fukuda et al method (H. Fukuda, T. Ito, S. Hashimoto and Y. Kudo: Japan. J. Pharmacol., 24, 810 (1974)). The rigidity is due to hyperactivity of α-motorneurones. The rigid animals provide a good experimental model for some type of spasticity in man.
A tracheal cannula was inserted in each of male Wistar rat under ether anesthesia. Both of common carotid arteries were ligated and the basilar artery was cauterized with a bipolar coagulator to block the blood circulation and to prepare a rigidity sample. The rigidity was recorded as described below. A rat was fixed on its back on a fixing stand and its forepaws were allowed to grisp an end of a celluloid plate provided with strain gauges on both sides thereof. A change of the resistance observed when the celluloid plate was forced up by the rigidity of the forepaws was recorded as a tension through a bridge circuit on a self-balancing recorder. A rigidity inhibition rate was calculated according to the following equation: [formula] when C represents an average tension (g) for 10 minutes at peak period before the administration of a test compound and D represents an average tension (g) for 10 minutes at peak period recorded after the intravenous administration 3.5 mg/kg of a test compound.

For the molecule `COc1ccc(C(=O)C(C)CN2CCCC2)c2c1CCCC2` (stereo not drawn) [2-1, 1-(4-Methoxy-5,6,7,8-tetrahydro-1-naphthyl)-2-methyl-3-pyrrolidino-1-propanone], the “Inhibition rate (%) (flexor reflex inhibition rate)” value in data set [1] is 53.6%. In addition, in data set [2], the LD50 is 38.1 mg/kg. In addition, the “Inhibition rate (%) (rigidity inhibition rate)” value in data set [3] was 46.1%.

For `CCC(CN1CCCC1)C(=O)c1ccc(OC)c2c1CCCC2` (stereo not drawn) [2-11, 1-(4-Methoxy-5,6,7,8-tetrahydro-1-naphthyl)-2-ethyl-3-pyrrolidino-1-propanone], in data set [1], the “Inhibition rate (%) (flexor reflex inhibition rate)” value came out at 50.0%. For the same molecule, in data set [2], the LD50 is 35.4 mg/kg. For the same molecule, the “Inhibition rate (%) (rigidity inhibition rate)” value in data set [3] worked out at 53.9%.

In the case of `CC(CN1CCCC1)C(=O)c1ccc(C(F)(F)F)cc1` (stereo not drawn) [4-1, 1-(4-Trifluoromethylphenyl)-2-methyl-3-pyrrolidino-1-propanone], the “Inhibition rate (%) (flexor reflex inhibition rate)” value in data set [1] was determined as 40.3%. Further, the LD50 in data set [2] stood at 61.1 mg/kg. In addition, the “Inhibition rate (%) (rigidity inhibition rate)” value in data set [3] was 23.6%.
